# Reference: patent publication US20220324835A1 (Nurix Therapeutics, Inc., priority 2018, published 2022)
# Where two headings read alike, the source gives them in different places.
# Assays:
# primary human NK cells = assay: NK cell activation assessed by cytokine secretion (coculture with K562 NucRed target cells); assay type: cell-based
# Experimental: Peripheral blood mononuclear cells (PBMC) were obtained either: 1) by using Ficoll-Paque™ (GE Healthcare) for separation of peripheral blood hematopoietic cells from buffy coats of healthy human donors; or 2) directly from LeukoPak donations. […] The cells were cultured overnight with IL-2 (60 ng/mL) at 37° C. 5% CO2. Cbl-b inhibitors were added 1 hour prior to stimulation and incubated at 37° C. 5% CO2 at a specific concentration (e.g., 10 μM, 1 μM, or 0.1 μM) with a final DMSO concentration of <0.1%. NK cells were co-cultured with target cells that were engineered to have a red nucleus (K562 NucRed) measurable by flow cytometry. […] The cells were mixed at the indicated ratios (e.g., 5:1, 1:1, or 1:5) of NK (effector cells) to K562 NucRed (target cells) for 6 hours. Cell free supernatants were collected and analyzed for cytokine secretion (e.g. TNFα, IFNγ, or MIP1β) by ELISA or Luminex multiplex kits following the manufacturer's protocol. IFNγ secretion was assessed using an R&D Systems ELISA kit (Catalog #DY285), TNFα secretion was assessed using an R&D Systems ELISA kit (Catalog #DY210), and MIP1β secretion was assessed using an R&D Systems ELISA kit (Catalog #DY271).
# Readouts were reported as fold change over baseline. Baseline for this study was the measurement obtained from primary human NK effector cells cocultured with K562 NucRed target cells in the absence of a Cbl-b inhibitor. For NK cells cocultured with K562 NucRed cells, changes greater than 2.0-fold over baseline for cytokine secretion were considered a positive response (Table 10a and 10b).
# T-cell = assay: CD25 cell surface staining on T-cells stimulated with anti-CD3 antibody alone (Biological Example 2); assay type: cell-based; conditions: primary human total T-cells, baseline = anti-CD3/anti-CD28 stimulated cells without inhibitor, read-out: CD25 staining, Anti-CD3 stimulation, fold change over baseline; for fold induction at 1 µM: 1 μM compound; for fold induction at 8 µM: 8 μM compound
# [1] = K562, 1:1 E/T, read-out: IFNγ secretion
# [2] = K562, 1:1 E/T, read-out: MIP1β secretion
# [3] = K562, 1:1 E/T, read-out: TNFα secretion
# [4] = K562, 5:1 E/T, read-out: IFNγ secretion
# [5] = K562, 5:1 E/T, read-out: MIP1β secretion
# [6] = K562, 5:1 E/T, read-out: TNFα secretion
SMILES,fold induction at 1 µM (primary human NK cells; [1]),fold induction at 1 µM (primary human NK cells; [2]),fold induction at 1 µM (primary human NK cells; [3]),fold induction at 10 µM (primary human NK cells; [1]),fold induction at 10 µM (primary human NK cells; [2]),fold induction at 10 µM (primary human NK cells; [3]),fold induction at 1 µM (primary human NK cells; [4]),fold induction at 1 µM (primary human NK cells; [5]),fold induction at 1 µM (primary human NK cells; [6]),fold induction at 10 µM (primary human NK cells; [4]),fold induction at 10 µM (primary human NK cells; [5]),fold induction at 10 µM (primary human NK cells; [6]),fold induction at 1 µM (T-cell),fold induction at 8 µM (T-cell)
"C[C@H](Cc1nncn1C)c1cccc(NC(=O)c2cc(C3CC3)cc(C(F)(F)F)n2)c1 [Compound 191, (R)-4-cyclopropyl-N-(3-(1-(4-methyl-4H-1,2,4-triazol-3-yl)propan-2-yl)phenyl)-6-(trifluoromethyl)picolinamide]",2.01 to 5,1.01 to 2,2.01 to 5,2.01 to 5,1.01 to 2,1.01 to 2,2.01 to 5,1.01 to 2,2.01 to 5,> 5,1.01 to 2,2.01 to 5,–,–
"C[C@H](Cc1nncn1C)c1cccc(NC(=O)c2cc(C(=O)N3CC[C@H](O)C3)cc(C(F)(F)F)n2)c1 [Compound 220, 4-((S)-3-hydroxypyrrolidine-1-carbonyl)-N-(3-((R)-1-(4-methyl-4H-1,2,4-triazol-3-yl)propan-2-yl)phenyl)-6-(trifluoromethyl)picolinamide]",1.01 to 2,1.01 to 2,1.01 to 2,2.01 to 5,2.01 to 5,2.01 to 5,1.01 to 2,1.01 to 2,1.01 to 2,2.01 to 5,2.01 to 5,2.01 to 5,–,–
"Cn1cnnc1CC1(c2cccc(N3Cc4c(cc(CN5CC[C@H](F)C5)cc4C(F)(F)F)C3=O)c2)COC1 [Compound 410, 6-{[(3S)-3-fluoropyrrolidin-1-yl]methyl}-2-(3-{3-[(4-methyl-4H-1,2,4-triazol-3-yl)methyl]oxetan-3-yl}phenyl)-4-(trifluoromethyl)-2,3-dihydro-1H-isoindol-1-one]",–,–,–,–,–,–,–,–,–,–,–,–,> 1,> 1
"Cn1cnnc1CC1(c2cccc(N3Cc4c(cc(CN5CC[C@@H](C#N)C5)cc4C(F)(F)F)C3=O)c2)COC1 [Compound 421, (R)-1-((2-(3-(3-((4-methyl-4H-1,2,4-triazol-3-yl)methyl)oxetan-3-yl)phenyl)-3-oxo-7-(trifluoromethyl)isoindolin-5-yl)methyl)pyrrolidine-3-carbonitrile]",–,–,–,–,–,–,–,–,–,–,–,–,> 1,> 1
"Cn1cnnc1CC1(c2cccc(N3Cc4c(cc(CN5C[C@H]6C[C@H]6C5)cc4C(F)(F)F)C3=O)c2)COC1 [Compound 429, 6-(((1R,5S)-3-azabicyclo[3.1.0]hexan-3-yl)methyl)-2-(3-(3-((4-methyl-4H-1,2,4-triazol-3-yl)methyl)oxetan-3-yl)phenyl)-4-(trifluoromethyl)isoindolin-1-one]",–,–,–,–,–,–,–,–,–,–,–,–,> 1,> 1
"Cn1cnnc1CC1(c2cccc(N3Cc4c(cc(CN5CCC[C@H](F)C5)cc4C(F)(F)F)C3=O)c2)COC1 [Compound 432, 6-{[(3S)-3-fluoropiperidin-1-yl]methyl}-2-(3-{3-[(4-methyl-4H-1,2,4-triazol-3-yl)methyl]oxetan-3-yl}phenyl)-4-(trifluoromethyl)-2,3-dihydro-1H-isoindol-1-one]",–,–,–,–,–,–,–,–,–,–,–,–,> 1,–
"Cn1cnnc1C(F)(F)[C@](C)(F)c1cccc(N2Cc3c(cc(CN4CC[C@H](F)C4)cc3C(F)(F)F)C2=O)c1 [Compound 447, 6-(((S)-3-fluoropyrrolidin-1-yl)methyl)-2-(3-((R)-1,1,2-trifluoro-1-(4-methyl-4H-1,2,4-triazol-3-yl)propan-2-yl)phenyl)-4-(trifluoromethyl)isoindolin-1-one]",2.01 to 5,< 1,2.01 to 5,> 5,1.01 to 2,2.01 to 5,> 5,1.01 to 2,2.01 to 5,> 5,2.01 to 5,> 5,> 1,> 1
"Cn1cnnc1C(F)(F)[C@](C)(F)c1cccc(N2Cc3c(cc(CN4CCC(F)(F)C4)cc3C(F)(F)F)C2=O)c1 [Compound 448, (R)-6-((3,3-difluoropyrrolidin-1-yl)methyl)-2-(3-(1,1,2-trifluoro-1-(4-methyl-4H-1,2,4-triazol-3-yl)propan-2-yl)phenyl)-4-(trifluoromethyl)isoindolin-1-one]",1.01 to 2,1.01 to 2,1.01 to 2,> 5,2.01 to 5,2.01 to 5,1.01 to 2,1.01 to 2,1.01 to 2,> 5,2.01 to 5,2.01 to 5,0.801 to 1,> 1
"Cn1cnnc1CC1(c2cccc(N3Cc4c(cc(CN5CC6(CC6)C5)cc4C(F)(F)F)C3=O)c2)COC1 [Compound 487, 6-{5-azaspiro[2.3]hexan-5-ylmethyl}-2-(3-{3-[(4-methyl-1,2,4-triazol-3-yl)methyl]oxetan-3-yl}phenyl)-4-(trifluoromethyl)-3H-isoindol-1-one]",–,–,–,–,–,–,–,–,–,–,–,–,> 1,–
"Cn1cnnc1CC1(c2cccc(NC(=O)c3cc(CN4CC[C@H](F)C4)cc(C4CC4)n3)c2)COC1 [Compound 496, 6-cyclopropyl-4-{[(3S)-3-fluoropyrrolidin-1-yl]methyl}-N-(3-{3-[(4-methyl-1,2,4-triazol-3-yl)methyl]oxetan-3-yl}phenyl)pyridine-2-carboxamide]",–,–,–,–,–,–,–,–,–,–,–,–,> 1,–
"C[C@@H](c1cc2c(c(C(F)(F)F)c1)CN(c1cccc(C3(Cc4nncn4C)COC3)c1)C2=O)N1C[C@H]2C[C@H]2C1 [Compound 541a, 6-((1S)-1-(3-azabicyclo[3.1.0]hexan-3-yl)ethyl)-2-(3-(3-((4-methyl-4H-1,2,4-triazol-3-yl)methyl)oxetan-3-yl)phenyl)-4-(trifluoromethyl)isoindolin-1-one]",–,–,–,–,–,–,–,–,–,–,–,–,> 1,–
"C[C@@H](c1cc2c(c(C(F)(F)F)c1)CN(c1cccc(C3(Cc4nncn4C)COC3)c1)C2=O)N1CCC(C)(F)CC1 [Example 553a, (S)-6-(1-(4-fluoro-4-methylpiperidin-1-yl)ethyl)-2-(3-(3-((4-methyl-4H-1,2,4-triazol-3-yl)methyl)oxetan-3-yl)phenyl)-4-(trifluoromethyl)isoindolin-1-one]",–,–,–,–,–,–,–,–,–,–,–,–,> 1,–
"C[C@H](c1cc2c(c(C(F)(F)F)c1)CN(c1cccc(C3(Cc4nncn4C)COC3)c1)C2=O)N1CCC(C)(F)CC1 [Example 553b, (R)-6-(1-(4-fluoro-4-methylpiperidin-1-yl)ethyl)-2-(3-(3-((4-methyl-4H-1,2,4-triazol-3-yl)methyl)oxetan-3-yl)phenyl)-4-(trifluoromethyl)isoindolin-1-one]",–,–,–,–,–,–,–,–,–,–,–,–,> 1,–
